# Reference: patent US5382582A, “Methotrexate analogs and methods of using same” (priority 1993, dated 1995)
# Key:
# [1] = tested on: human leukemia cell line K562; assay: Growth inhibition of myelogenous leukemia cells (cell counts, 120 h continuous exposure); format: cell-based; conditions: for IC50: Homo sapiens, K562 Cells, 120 hours continuous exposure
# Method: (§1) Two suspensious human leukemia cell lines were employed in this study. The myelogenous leukemia cell line K562 was cultured in RPMI 1640 (JRH Biosciences) containing 10% filtered fetal bovine serum (FBS; Irvine Scientific), and the lymphoblastic leukemia cell line CCRF/CEM was cultured in RPMI 1640 containing 20% FBS, 100 U/ml penicillin (GIBCO Laboratories, Grand Island, NY), and 100 μg/ml streptomycin (GIBCO). Cells were maintained at 37° C. with 5% CO2 in air, and were cultured using standard sterile tissue culture technique.
# (§2) Prior to toxicity studies, cells were maintained 48 hours in the absence of added inhibitor. Logarithmically growing cells were inoculated at 1×10^4 cells/ml in tissue culture grade petri dishes (35×10 mm), and, following a suitable recovery period, were treated with chemical agents. Inhibitor concentrations ranging from 10^-12 to 10^-4 M were added to the cultures except for a control culture, which contained no added drug. Cell counts were performed by hematometer counting during 120 hours of continuous exposure to the drugs. The IC50 value was obtained by interpolation from graphs of percent growth inhibition plotted against drug concentration.
# [2] = In vivo pharmacokinetics: 7-OH-MTX formed from drug in rabbit plasma; parameters: species or system New Zealand White rabbit; conditions: i.v., as compared with MTX
# Method: A male New Zealand White rabbit was cannulated through the middle ear artery. A single bolus 16.7 mg/kg dose of drug was administered into the ear vein, and 1.0 ml blood samples were withdrawn from the cannulated artery into heparinized tubes at 0, 5, 15, 30, 45, 60, 75 and 90 minutes following drug administration. Plasma was separated from the samples by centrifugation at 1000 rpm, and was kept frozen until analysis.
# HPLC analysis was performed as in Example 5, with the exception that the mobile phase was 0.1 M monobasic sodium phosphate and 0.1 M Tris-HCl in 20% methanol at a final pH of 6.7. p-Aminoacetophenone (10 μg/ml in water) was used as an internal standard.
# Pharmacokinetic parameters were determined by the method of residual, a standard pharmacokinetic technique for resolving a curve into its various exponential components.
# Thus tmax was calculated according to the formula:
# tmax =2.3 log (ka /kc)/[…]
# [3] = tested on: human leukemia cell line CCRF/CEM; assay: Growth inhibition of lymphoblastic leukemia cells (cell counts, 120 h continuous exposure); format: cell-based
# Method: as §1, §2
# [4] = Tomcuf, J. Organic Chem., 26, 3351 (1961); cited from earlier work
# [5] = high dose regimen; Barak et al. (1984); cited from earlier work
# [6] = Half-life in rabbit liver homogenate
# Method: (§3) For these experiments, freshly isolated liver from a New Zealand white rabbit was homogenized in 400 ml of cold buffer of pH 7.6 consisting of 10 mM Tris-HCl, 25 mM sucrose and 10 mMMgCl2. The homogenate was centrifuged at 1000× g for 20 minutes at 4° C. and the resulting pellet was resuspended in about 14 ml of the same buffer. […] Two ml samples of the homogenate were removed at 10 minute intervals. Samples were boiled 5 minutes to denature proteins, and then centrifuged to pellet cell debris. […] For HPLC analysis, a Perkin-Elmer 410 LC solvent delivery system and a 5-μm IBM ODS column (4.1×250 mm) with a C18 Guard column were employed. […] Detector output was recorded and integrated by a Perkin-Elmer LCI 100 integrator.
# [7] = Formation of 7-OH-MTX (7-hydroxylation) in rabbit liver homogenate; conditions: as compared with MTX
# Method: as §3, with “employed. The mobile phase consisted of 0.1 M monobasic sodium phosphate and 0.1 M Tris-HCl in 27% methanol at a final pH of 7.6.” for “employed.”
# [8] = Rosowsky and Chen, J. Med. Chem., 18, 1308-11 (1974); cited from earlier work
# [9] = man and monkeys; Borsi et al. (1990), Jacobs et al. (1976); cited from earlier work
smiles,measurement,setting,value
"[2H]c1nc2nc(N)nc(N)c2nc1C([2H])([2H])N(C)c1ccc(C(=O)N[C@@H](CCC(=O)O)C(=O)O)cc1 (racemic) [7,9,9-d3 -MTX, N-[p-[N-(2,4-diamino-7-deutero-6-pteridinyldideuteromethyl)-N-methylamino]benzoyl]glutamic acid]",IC50,[1],40 nM
same,IC50 compared with IC50 of MTX,"[1]; K562 and CCRF/CEM cells, D,L-racemate",greater than the IC50 values obtained for MTX
same,Peak level of 7-OH-MTX less than that obtained from MTX by,[2],about 70%
same,Time to achieve 7-OH-MTX peak level as compared to that of MTX,[2],more than twice as long
same,IC50,[3],48 nM
"CN(Cc1cnc2nc(N)nc(N)c2n1)c1c(F)cc(C(=O)N[C@@H](CCC(=O)O)C(=O)O)cc1F [3', 5'-difluoro MTX]",Biological activity as compared with MTX,[4],little or no increase in biological activity as compared with MTX
"CN(Cc1nc2c(N)nc(N)nc2nc1O)c1ccc(C(=O)N[C@@H](CCC(=O)O)C(=O)O)cc1 [7-OH-MTX, 7-hydroxymethotrexate]",Toxicity,[5],the source of this toxicity
"[2H]c1nc2nc(N)nc(N)c2nc1CN(C)c1ccc(C(=O)N[C@@H](CCC(=O)O)C(=O)O)cc1 [7-d-MTX, N-{p-[N-(2,4-diamino-7-deutero-6-pterridinylmethyl)-N-methylamino]benzoyl}-L -glutamic acid]",IC50,[1],6 nM
same,IC50 lower than IC50 of MTX by,"[1]; K562 and CCRF/CEM cells, as compared with MTX",15-25%
same,IC50,[3],9.5 nM
same,Half-life greater than half-life for MTX by,"[6]; rabbit liver homogenate, as compared with MTX",about 60%
same,Less 7-OH-MTX formed per unit time than from MTX,[7],about 70%
Cc1nc2nc(N)nc(N)c2nc1CN(C)c1ccc(C(=O)N[C@@H](CCC(=O)O)C(=O)O)cc1 [7-methyl substituted MTX],Antifolate antagonism,[8],impaired antifolate antagonism
"CN(Cc1cnc2nc(N)nc(N)c2n1)c1ccc(C(=O)N[C@@H](CCC(=O)O)C(=O)O)cc1 [MTX, N-[4-[[(2,4-diamino-6pteridinyl)methyl]methylamino]benzoyl]-L-glutamicacid, reference compound]",IC50,[1],8 nM
same,IC50,[3],11.3 nM
same,Toxicity,[5],associated with renal and hepatic toxicity
same,Conversion in vivo to 7-OH-MTX,[9],converted in vivo to 7-hydroxymethotrexate (7-OH-MTX)
same,Half-Life,"[6]; rabbit, liver homogenate, pH 7.6",28.2 min
